Reference: PubChem BioAssay (NCI)
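Following 48 hours of exposure in 96-well plates, responses at five concentrations were used to interpolate endpoints linearly. Definition used: TGI = concentration required for complete inhibition of growth.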

Legend:
Assay in all cases: NCI-60 cell line screen, 48 h
[1] = test system: MDA-MB-231 breast
[2] = test system: SNB-75 CNS
[3] = test system: NCI/ADR-RES ovarian
[4] = test system: CAKI-1 renal
[5] = test system: SF-539 CNS
[6] = test system: KM12 colon
[7] = test system: CCRF-CEM leukemia
[8] = test system: HCC-2998 colon
[9] = test system: DLD-1 colon
[10] = test system: M19-MEL melanoma
[11] = test system: DMS 114 small cell lung

Structure (SMILES)	TGI [1]	TGI [2]	TGI [3]	TGI [4]	TGI [5]	TGI [6]	TGI [7]	TGI [8]	TGI [9]	TGI [10]	TGI [11]
CC(C)=CC(Cc1ccccc1)S(=O)(=O)c1nc2ccccc2s1 (centres undefined)	52 µM	41.1 µM	50 µM	22.1 µM	30.8 µM	35.8 µM	7.49 µM	33.6 µM	–	–	–
CC(=O)OCC1OC(Nn2c(=O)[nH]c3ccccc3c2=O)C(OC(C)=O)C(OC(C)=O)C1OC(C)=O (centres undefined)	> 100 µM	> 100 µM	> 100 µM	> 100 µM	> 100 µM	> 100 µM	> 100 µM	53 µM	–	–	–
COc1cc(C2c3cc4c(cc3OC(NNS(=O)(=O)c3ccc(C)cc3)C2C)OCO4)cc(OC)c1O (centres undefined)	57.5 µM	22.7 µM	45.1 µM	32.8 µM	31.4 µM	36.5 µM	> 100 µM	> 100 µM	–	–	–
CC1SCc2nc3ccccc3n21 (centres undefined)	> 100 µM	83.3 µM	> 100 µM	> 100 µM	> 100 µM	> 100 µM	> 100 µM	> 100 µM	–	–	–
N#CC(=N)c1ncn(-c2ccc(N)cc2)c1N	> 100 µM	> 100 µM	> 100 µM	> 100 µM	> 100 µM	> 100 µM	> 100 µM	> 100 µM	–	–	–
CCOC(=O)C1c2[nH]c3ccccc3c2CCN1C(=O)c1ccc(OC)o1 (centres undefined)	> 10 µM	> 10 µM	> 10 µM	> 10 µM	> 10 µM	> 10 µM	> 10 µM	> 10 µM	–	–	–
O=C1C(=O)N(c2cccc(C(F)(F)F)c2)C(=S)N1c1ccccc1	57.2 µM	> 100 µM	> 100 µM	79.4 µM	80.6 µM	> 100 µM	> 100 µM	> 100 µM	–	–	–
COC1C(O)C(n2ncc3c(SC)nc(SC)nc32)OC1C(O)CO (centres undefined)	–	> 100 µM	> 100 µM	–	> 100 µM	> 100 µM	> 100 µM	> 100 µM	> 100 µM	> 100 µM	> 100 µM
COc1ccccc1C1ON=C(c2ccc([N+](=O)[O-])cc2)N1C12CC3CC(CC(C3)C1)C2 (centres undefined)	> 100 µM	> 100 µM	> 100 µM	> 100 µM	> 100 µM	> 100 µM	> 100 µM	> 100 µM	–	–	–
CS(=O)(=O)c1ccc(N=C/C=C/Nc2ccc(S(C)(=O)=O)cc2)cc1	> 100 µM	> 100 µM	> 100 µM	> 100 µM	> 100 µM	> 100 µM	> 100 µM	> 100 µM	–	–	–
CC1=C(O)C(=O)C2C(=O)C1C1Cc3ccccc3C21 (centres undefined)	–	> 100 µM	–	> 100 µM	> 100 µM	> 100 µM	> 100 µM	> 100 µM	> 100 µM	> 100 µM	–
